Test results: ChEMBL document CHEMBL4732045, “Amide Bond Bioisosteres: Strategies, Synthesis, and Successes” (J Med Chem, 2020)
Converted amounts (≈) assume the structure as drawn. Peptide text beside a SMILES is read from it. * marks the point of attachment. Hica(2S) = CC(C)C[C@H](O)C(=O)O; Boc = CC(C)(C)OC(=O)*

Legend:
[1] = target: Gastrin/cholecystokinin type B receptor (Homo sapiens) (UniProt P32239); test: Agonist activity at CCKBR in human NCI-H345 cells assessed as calcium release relative to control; format: functional, cell-based; conditions: filed as agonist
[2] = Inhibition of [125]BH-CCK8 binding to guinea pig cortex CCKBR by radioligand binding assay; format: tissue-based, Cavia porcellus
[3] = target: T1, Delta-type opioid receptor (Mus musculus, UniProt P32300); test: Inhibition of [3H]-Deltorphin 2 binding to mouse delta opioid receptor expressed in HEK293 cell membranes incubated for 60 mins by Cheng-Prusoff analysis; design: species or system Cell membrane
[4] = clinical; conditions: human
[5] = target: Delta-type opioid receptor (Homo sapiens, UniProt P41143)
[6] = target: Kappa-type opioid receptor (Homo sapiens, UniProt P41145)
[7] = target: Mu-type opioid receptor (Homo sapiens, UniProt P35372)
[8] = target: T1, Delta-type opioid receptor; test: Agonist activity at delta opioid receptor in mouse vas deferens assessed as inhibition of electric-field induced measured after 5 mins; format: tissue-based
[9] = Half life in Sprague-Dawley rat plasma measured after 60 mins by HPLC method; format: ADME, cell-free
[10] = target: T1, Delta-type opioid receptor; test: Inhibition of [3H]-Deltorphin 2 binding to mouse delta opioid receptor expressed in rat GH3 cell membranes by Cheng-Prusoff analysis; design: species or system Cell membrane
[11] = test system: MCF-10A; test: Antiproliferative activity against human MCF-10A cells incubated for 24 hrs by MTT assay; format: functional, cell-based
[12] = test system: MDA-MB-231; test: cells; conditions: Homo sapiens, MDA-MB-231, 24 h
[13] = test system: MDA-MB-231; test: Antitumor activity against human MDA-MB-231 cells xenografted in nude mouse assessed as reduction in tumor volume at 70 mg/kg, ip administered for 15 days (reference value: 550 +/- 98.6 mm3); format: functional; conditions: time 15 day
[14] = Antagonist activity at bombesin receptor in Sprague-Dawley rat pancreatic acini assessed as inhibition of bombesin-induced amylase release incubated for 30 mins; format: tissue-based, Pancreas
[15] = test system: Rattus norvegicus; test: Hypocholesterolemic activity in cholestrol fed Sprague-Dawley rat assessed as decrease in total cholesterol at 0.05%, po administered for 1 week; format: functional; design: scale not given: the % may be the effect or the level left; conditions: time 1 weeks
[16] = Inhibition of ACAT in cholesterol-fed New Zealand rabbit intestional microsomes using [1-14C]oleoyl-CoA as substrate preincubated for 5 mins followed by substrate addition and measured after 5 mins by liquid scintillation counting method; design: species or system Oryctolagus cuniculus, Intestine, Microsome
[17] = test system: Human betaherpesvirus 5; test: Antiviral activity against HCMV infected in human Hs68 cells by plaque reduction assay; format: functional, cell-based; conditions: Human betaherpesvirus 5, Hs68
[18] = target: T2, Transient receptor potential cation channel subfamily V member 1 (Homo sapiens, UniProt Q8NER1); test: Antagonist activity at human recombinant TRPV1 expressed in HEK293 cells assessed as effect on intracellular calcium level by FLOU-4 dye based fluorescence spectrometry; format: cell-based
[19] = target: T2, Transient receptor potential cation channel subfamily V member 1
[20] = target: Cannabinoid receptor 1 (Homo sapiens, UniProt P21554); test: Displacement of [3H]-CP55940 from human recombinant cannabinoid CB1 receptor expressed in HEK cells by Cheng-Prusoff analysis; format: cell-based
[21] = target: Protein-S-isoprenylcysteine O-methyltransferase (Homo sapiens, UniProt O60725); test: Inhibition of human isoprenylcysteine carboxyl methyltransferase expressed in Saccharomyces cerevisiae membranes using AFC as substrate in presence of 14C-SAM incubated for 30 min by scintillation counting method; format: cell membranes, Cell membrane
[22] = target: Matrilysin (Homo sapiens, UniProt P09237); test: Inhibition of human MMP7 by fluorometric assay
[23] = target: Interstitial collagenase (Homo sapiens, UniProt P03956); test: Inhibition of PMA-induced human skin fibroblast derived MMP1 by fluorometric assay; format: tissue-based
[24] = target: Stromelysin-1 (Homo sapiens, UniProt P08254); test: Inhibition of human MMP3 by fluorometric assay
[25] = Oral bioavailability in rat at 30 mg/kg; format: ADME, organism-based; conditions: in vivo
[26] = Half life in rat at 30 mg/kg, po; format: ADME, organism-based; conditions: in vivo
[27] = target: 72 kDa type IV collagenase (Homo sapiens, UniProt P08253); test: Inhibition of TNF-induced MMP2 isolated from human HT-1080 cell medium by fluorometric assay; format: tissue-based
[28] = Half-life in human plasma at 50 uM measured by LC-MS/MS analysis; format: ADME, cell-free
[29] = Half-life in Sprague-Dawley rat plasma at 50 uM measured by LC-MS/MS analysis; format: ADME, cell-free
[30] = Oral bioavailability in Sprague-Dawley rat at 2 mg/kg; format: ADME, organism-based; conditions: in vivo
[31] = target: Integrin alpha-4/beta-1 (Homo sapiens, UniProt P05556+P13612); test: Displacement of 125I-VCAM-Ig from VLA4 in human Jurkat cells incubated for 30 mins by scintillation counting method; format: cell-based
[32] = Plasma clearance in rat; format: ADME
[33] = target: Cholecystokinin receptor type A (Cavia porcellus, UniProt Q63931); test: Inhibition of [125]BH-CCK8 binding to guinea pig pancreas CCKAR by radioligand binding assay; format: tissue-based
[34] = target: Gastrin/cholecystokinin type B receptor (Homo sapiens, UniProt P32239); test: Agonist activity at CCKBR in human NCI-H345 cells assessed as calcium release; format: functional, cell-based
[35] = test system: MDA-MB-231; test: Antitumor activity against human MDA-MB-231 cells xenografted in nude mouse assessed as reduction in tumor volume at 90 mg/kg, ip administered for 15 days (reference value: 550 +/- 98.6 mm3); format: functional; conditions: time 15 day

T1 sequence (P32300 whole entry): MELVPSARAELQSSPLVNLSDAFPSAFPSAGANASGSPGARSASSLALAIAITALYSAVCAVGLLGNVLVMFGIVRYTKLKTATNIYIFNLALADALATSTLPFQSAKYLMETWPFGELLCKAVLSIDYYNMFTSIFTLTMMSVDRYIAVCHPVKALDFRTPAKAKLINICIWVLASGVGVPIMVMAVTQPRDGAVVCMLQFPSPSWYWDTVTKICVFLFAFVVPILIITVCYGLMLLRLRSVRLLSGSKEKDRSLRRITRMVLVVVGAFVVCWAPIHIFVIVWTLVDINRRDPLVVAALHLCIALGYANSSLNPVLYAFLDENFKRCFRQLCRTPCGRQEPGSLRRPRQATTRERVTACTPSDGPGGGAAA
Delta-type opioid receptor (Homo sapiens, UniProt P41143), sequence (P41143 whole entry): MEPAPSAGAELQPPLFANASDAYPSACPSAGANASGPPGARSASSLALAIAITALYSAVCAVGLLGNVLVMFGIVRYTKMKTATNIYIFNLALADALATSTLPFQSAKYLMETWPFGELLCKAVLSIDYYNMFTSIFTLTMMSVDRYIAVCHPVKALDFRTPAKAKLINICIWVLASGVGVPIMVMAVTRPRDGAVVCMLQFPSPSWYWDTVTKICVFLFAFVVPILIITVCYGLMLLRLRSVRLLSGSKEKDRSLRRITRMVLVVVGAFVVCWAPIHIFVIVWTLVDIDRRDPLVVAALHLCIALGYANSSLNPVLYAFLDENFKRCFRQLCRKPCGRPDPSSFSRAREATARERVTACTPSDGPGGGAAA
Gastrin/cholecystokinin type B receptor (Homo sapiens), sequence (P32239 whole entry): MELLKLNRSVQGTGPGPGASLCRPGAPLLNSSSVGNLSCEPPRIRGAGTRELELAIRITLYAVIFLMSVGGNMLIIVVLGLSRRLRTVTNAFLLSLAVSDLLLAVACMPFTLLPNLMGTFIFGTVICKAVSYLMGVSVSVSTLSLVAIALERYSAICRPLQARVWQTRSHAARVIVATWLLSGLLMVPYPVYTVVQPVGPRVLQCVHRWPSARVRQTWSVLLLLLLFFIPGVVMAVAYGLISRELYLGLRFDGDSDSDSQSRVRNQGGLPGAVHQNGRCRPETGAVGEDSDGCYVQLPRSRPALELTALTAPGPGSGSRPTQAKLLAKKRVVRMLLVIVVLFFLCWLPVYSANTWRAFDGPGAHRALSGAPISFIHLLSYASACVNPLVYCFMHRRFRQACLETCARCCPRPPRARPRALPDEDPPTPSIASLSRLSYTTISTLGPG
T2 sequence (Q8NER1 whole entry): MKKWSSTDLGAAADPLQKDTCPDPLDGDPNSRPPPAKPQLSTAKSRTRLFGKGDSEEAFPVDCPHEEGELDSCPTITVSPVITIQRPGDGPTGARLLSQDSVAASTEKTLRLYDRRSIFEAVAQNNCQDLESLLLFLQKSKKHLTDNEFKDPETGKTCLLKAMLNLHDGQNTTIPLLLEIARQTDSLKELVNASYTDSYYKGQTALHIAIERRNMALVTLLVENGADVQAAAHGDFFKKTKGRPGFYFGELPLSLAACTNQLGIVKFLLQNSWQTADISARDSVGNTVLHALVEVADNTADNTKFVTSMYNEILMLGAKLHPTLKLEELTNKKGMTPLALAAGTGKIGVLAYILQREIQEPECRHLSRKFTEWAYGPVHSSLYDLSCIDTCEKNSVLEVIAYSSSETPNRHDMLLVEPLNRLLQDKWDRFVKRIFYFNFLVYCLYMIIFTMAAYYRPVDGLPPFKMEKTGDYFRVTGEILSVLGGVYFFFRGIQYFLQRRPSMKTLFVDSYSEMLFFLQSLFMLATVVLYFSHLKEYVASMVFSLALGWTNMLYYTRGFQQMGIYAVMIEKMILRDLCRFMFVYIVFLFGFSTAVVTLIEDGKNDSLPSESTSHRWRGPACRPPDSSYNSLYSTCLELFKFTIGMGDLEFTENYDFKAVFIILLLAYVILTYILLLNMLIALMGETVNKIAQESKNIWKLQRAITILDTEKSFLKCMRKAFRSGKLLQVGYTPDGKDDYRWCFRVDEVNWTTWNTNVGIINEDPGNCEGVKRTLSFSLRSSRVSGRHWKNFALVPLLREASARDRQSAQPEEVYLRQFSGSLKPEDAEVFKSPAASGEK
Kappa-type opioid receptor, sequence (P41145 whole entry): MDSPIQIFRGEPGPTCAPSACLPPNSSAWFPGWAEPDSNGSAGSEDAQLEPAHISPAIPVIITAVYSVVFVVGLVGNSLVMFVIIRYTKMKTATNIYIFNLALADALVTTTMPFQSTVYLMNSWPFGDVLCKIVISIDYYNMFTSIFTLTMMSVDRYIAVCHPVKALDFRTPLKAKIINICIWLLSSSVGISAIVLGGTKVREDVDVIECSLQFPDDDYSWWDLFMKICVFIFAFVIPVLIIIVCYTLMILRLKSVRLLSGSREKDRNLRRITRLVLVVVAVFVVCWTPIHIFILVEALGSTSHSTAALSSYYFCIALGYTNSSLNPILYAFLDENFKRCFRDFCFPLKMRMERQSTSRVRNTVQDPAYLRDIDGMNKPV
Mu-type opioid receptor, sequence (P35372 whole entry): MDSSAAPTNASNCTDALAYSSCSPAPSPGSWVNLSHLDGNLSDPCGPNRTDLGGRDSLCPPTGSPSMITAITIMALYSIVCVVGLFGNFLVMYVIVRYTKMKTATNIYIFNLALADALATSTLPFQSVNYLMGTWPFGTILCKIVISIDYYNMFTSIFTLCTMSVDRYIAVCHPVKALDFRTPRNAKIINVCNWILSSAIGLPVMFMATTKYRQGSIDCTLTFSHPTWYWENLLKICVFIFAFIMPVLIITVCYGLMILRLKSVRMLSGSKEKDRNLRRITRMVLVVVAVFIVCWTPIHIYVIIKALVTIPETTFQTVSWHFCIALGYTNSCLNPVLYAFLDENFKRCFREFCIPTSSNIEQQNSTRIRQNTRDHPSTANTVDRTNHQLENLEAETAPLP
Stromelysin-1, sequence (P08254 whole entry): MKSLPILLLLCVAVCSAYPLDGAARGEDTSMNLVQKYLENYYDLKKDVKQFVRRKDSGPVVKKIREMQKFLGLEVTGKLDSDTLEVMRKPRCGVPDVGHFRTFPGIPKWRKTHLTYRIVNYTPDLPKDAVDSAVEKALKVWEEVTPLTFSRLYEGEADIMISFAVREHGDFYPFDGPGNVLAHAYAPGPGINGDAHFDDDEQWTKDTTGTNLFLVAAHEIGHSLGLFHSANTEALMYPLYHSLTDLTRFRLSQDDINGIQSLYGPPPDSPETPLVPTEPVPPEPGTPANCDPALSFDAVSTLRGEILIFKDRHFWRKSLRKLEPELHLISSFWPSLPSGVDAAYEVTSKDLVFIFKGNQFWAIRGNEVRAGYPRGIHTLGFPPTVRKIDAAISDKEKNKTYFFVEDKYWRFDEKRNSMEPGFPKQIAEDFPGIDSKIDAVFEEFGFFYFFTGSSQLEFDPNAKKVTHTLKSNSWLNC
72 kDa type IV collagenase, sequence (P08253 whole entry): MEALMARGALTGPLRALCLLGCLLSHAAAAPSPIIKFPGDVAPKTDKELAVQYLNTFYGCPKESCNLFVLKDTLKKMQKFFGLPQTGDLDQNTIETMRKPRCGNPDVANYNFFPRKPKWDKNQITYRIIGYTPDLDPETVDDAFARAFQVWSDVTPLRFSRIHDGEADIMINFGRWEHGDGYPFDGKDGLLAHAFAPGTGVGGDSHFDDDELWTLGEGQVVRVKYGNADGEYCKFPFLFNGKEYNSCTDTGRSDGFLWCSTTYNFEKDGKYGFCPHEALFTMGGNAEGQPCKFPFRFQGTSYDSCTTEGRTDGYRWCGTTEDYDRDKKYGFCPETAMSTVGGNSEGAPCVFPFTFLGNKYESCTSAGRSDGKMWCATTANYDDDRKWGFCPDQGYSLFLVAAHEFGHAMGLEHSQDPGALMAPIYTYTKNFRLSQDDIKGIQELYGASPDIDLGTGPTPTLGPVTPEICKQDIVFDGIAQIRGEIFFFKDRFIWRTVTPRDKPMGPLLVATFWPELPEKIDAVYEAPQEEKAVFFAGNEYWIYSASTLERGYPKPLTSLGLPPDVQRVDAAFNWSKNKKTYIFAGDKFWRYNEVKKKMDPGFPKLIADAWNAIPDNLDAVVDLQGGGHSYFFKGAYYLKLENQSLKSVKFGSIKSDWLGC
Matrilysin, sequence (P09237 whole entry): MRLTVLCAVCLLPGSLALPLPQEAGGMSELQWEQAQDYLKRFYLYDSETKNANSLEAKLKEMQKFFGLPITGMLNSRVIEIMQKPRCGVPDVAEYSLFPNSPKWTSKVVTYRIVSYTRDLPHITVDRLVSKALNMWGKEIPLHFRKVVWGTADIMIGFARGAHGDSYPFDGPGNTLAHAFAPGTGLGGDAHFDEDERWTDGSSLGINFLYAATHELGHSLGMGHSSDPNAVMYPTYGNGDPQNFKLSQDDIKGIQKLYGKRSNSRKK
Protein-S-isoprenylcysteine O-methyltransferase, sequence (O60725 whole entry): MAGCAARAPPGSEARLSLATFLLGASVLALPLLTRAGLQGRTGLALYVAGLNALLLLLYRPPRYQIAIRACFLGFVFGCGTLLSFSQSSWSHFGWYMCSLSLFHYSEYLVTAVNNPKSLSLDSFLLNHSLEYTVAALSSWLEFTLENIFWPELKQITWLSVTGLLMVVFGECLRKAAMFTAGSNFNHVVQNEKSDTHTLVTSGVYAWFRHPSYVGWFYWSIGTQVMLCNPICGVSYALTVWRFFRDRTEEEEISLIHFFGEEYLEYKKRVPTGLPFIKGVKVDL
Interstitial collagenase, sequence (P03956 whole entry): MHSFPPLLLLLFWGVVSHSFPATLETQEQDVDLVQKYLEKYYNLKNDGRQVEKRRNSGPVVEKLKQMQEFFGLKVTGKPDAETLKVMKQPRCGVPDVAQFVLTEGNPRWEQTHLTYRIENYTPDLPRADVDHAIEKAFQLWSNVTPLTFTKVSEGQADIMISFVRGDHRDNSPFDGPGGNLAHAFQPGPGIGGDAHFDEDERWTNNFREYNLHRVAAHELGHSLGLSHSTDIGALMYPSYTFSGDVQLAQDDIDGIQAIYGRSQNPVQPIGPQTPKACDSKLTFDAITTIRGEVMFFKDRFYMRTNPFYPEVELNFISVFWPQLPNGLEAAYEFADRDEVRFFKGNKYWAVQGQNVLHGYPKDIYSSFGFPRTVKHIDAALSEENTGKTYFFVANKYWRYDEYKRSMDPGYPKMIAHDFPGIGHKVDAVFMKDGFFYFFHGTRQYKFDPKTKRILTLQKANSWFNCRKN

**Q.** With `CSCC[C@H](NC(=O)[C@H](Cc1c[nH]c2ccccc12)NC(=O)OC(C)(C)C)C(=O)N[C@@H](CC(=O)O)C(=O)N[C@@H](Cc1ccccc1)C(N)=O` as the compound, how does the Emax [1] read?
**A.** 99%

**Q.** What about the IC50 [2] of the same compound?
**A.** 25 nM

**Q.** With `CC(C)C[C@H](NC(=O)[C@@H](/C=C(\F)CNC(=O)CNC(=O)[C@@H](N)Cc1ccc(O)cc1)Cc1ccccc1)C(=O)O` as the compound, how does the Ki [3] read?
**A.** 43 nM

**Q.** For `Cc1nnc2n1-c1ccc(Cl)cc1C(c1ccccc1)=NC2` [ALPRAZOLAM], which half-life [4] is on record?
**A.** 6.3 h

**Q.** With `CC(C)C[C@H](NC(=O)[C@H](Cc1ccccc1)NC(=O)CNC(=O)CN[C@H]([C@@H](N)Cc1ccc(O)cc1)C(F)(F)F)C(=O)O` as the compound, how does the EC50 [5] read?
**A.** > 10000 nM

**Q.** And the EC50 [6]?
**A.** > 10000 nM

**Q.** What about the EC50 [7] of the same compound?
**A.** > 10000 nM

**Q.** Which EC50 [8] does the source give for `CC(C)C[C@@H](C(=O)O)N(C)C(=O)[C@H](Cc1ccccc1)NC(=O)CNC(=O)CNC(=O)[C@@H](N)Cc1ccc(O)cc1` here?
**A.** 35 nM

**Q.** And the half-life [9]?
**A.** 0.178 h

**Q.** What about the Ki [10] of the same compound?
**A.** 12.6 nM

**Q.** For `CCCCS(=O)(=O)NCc1ccc2c(c1)OCO2`, which IC50 [11] is on record?
**A.** 198000 nM

**Q.** What about the IC50 [12] of the same compound?
**A.** 87000 nM

**Q.** And the Activity [13]?
**A.** 133.4 mm3

**Q.** With `CC(C)C[C@H](N)CNC(=O)[C@H](CC(C)C)NC(=O)[C@H](Cc1cnc[nH]1)NC(=O)CNC(=O)[C@@H](NC(=O)[C@H](C)NC(=O)[C@H](Cc1c[nH]c2ccccc12)NC(=O)[C@H](CCC(N)=O)NC(=O)[C@H](N)Cc1ccccc1)C(C)C` as the compound, how does the IC50 [14] read?
**A.** 68.7 nM

**Q.** Which results are given for `CCCCCCCCCCCCCCCCCNC(=O)Nc1c(C)cccc1C`?
**A.** Activity [15]: 55%; IC50 [16]: 160 nM

**Q.** Which IC50 [17] does the source give for `CC(C)Oc1ccccc1CNC(=O)Nc1ccc2cnccc2n1` here?
**A.** 0.03 µg/mL (≈ 0.0892 µM)

**Q.** With `CCCCCCCc1cn(Cc2cc(OC)c(O)cc2I)nn1` as the compound, how does the Ki [18] read?
**A.** 0.69 nM

**Q.** And the EC50 [19]?
**A.** > 10000 nM

**Q.** And the Ki [20]?
**A.** 440 nM

**Q.** For `CC(C)C[C@H](N)/C=C/NC(=O)[C@H](CC(C)C)NC(=O)[C@H](Cc1cnc[nH]1)NC(=O)CNC(=O)[C@@H](NC(=O)[C@H](C)NC(=O)[C@H](Cc1c[nH]c2ccccc12)NC(=O)[C@H](CCC(N)=O)NC(=O)[C@H](N)Cc1ccccc1)C(C)C`, which IC50 [14] is on record?
**A.** 6.7 nM

**Q.** With `CC(C)C[C@H](OC(=O)[C@H](Cc1ccccc1)NC(=O)CNC(=O)CNC(=O)[C@@H](N)Cc1ccc(O)cc1)C(=O)O` (H-YGGF-{Hica(2S)}) as the compound, how does the EC50 [8] read?
**A.** 140 nM

**Q.** And the half-life [9]?
**A.** 0.055 h

**Q.** What about the Ki [10] of the same compound?
**A.** 11.9 nM

**Q.** For `CC(C)=CCC/C(C)=C/CC/C(C)=C/CSC[C@H](NC(=O)c1ccccc1Oc1ccccc1)C(=O)O`, which IC50 [21] is on record?
**A.** 4300 nM

**Q.** With `C=CC[C@H](C(=O)NO)[C@@H](CC(C)C)C(=O)N[C@@H](Cc1ccc2c(c1)CCC2)C(=O)NC` as the compound, how does the IC50 [22] read?
**A.** 11 nM

**Q.** What about the IC50 [23] of the same compound?
**A.** 2.2 nM

**Q.** And the IC50 [24]?
**A.** 12 nM

**Q.** And the bioavailability [25]?
**A.** 0%

**Q.** And the half-life [26]?
**A.** 0.35 h

**Q.** And the IC50 [27]?
**A.** 1.8 nM

**Q.** What does the source list for `CC(C)C[C@H](NC(=O)[C@H](Cc1ccccc1)NC(=O)CNC(=O)C/C=C(\F)[C@@H](N)Cc1ccc(O)cc1)C(=O)O`?
**A.** half-life at 50 µM [28]: 4 h; half-life at 50 µM [29]: 4 h

**Q.** For `CC(C)C[C@H](NC(=O)[C@H](Cc1ccccc1)NC(=O)CNC(=O)CN[C@@H]([C@@H](N)Cc1ccc(O)cc1)C(F)(F)F)C(=O)O`, which EC50 [5] is on record?
**A.** > 10000 nM

**Q.** And the EC50 [6]?
**A.** > 10000 nM

**Q.** And the EC50 [7]?
**A.** > 10000 nM

**Q.** For `CC[C@@]1(C(=O)N[C@@H](Cc2ccc(-c3c(OC)cccc3OC)cc2)C(=O)O)CCN1S(=O)(=O)c1ccccc1`, which bioavailability [30] is on record?
**A.** < 10%

**Q.** And the IC50 [31]?
**A.** 0.07 nM

**Q.** And the clearance [32]?
**A.** 110 mL/min/kg

**Q.** Which results are given for `CCCCCCCCCCCCCCCCC(=O)Nc1c(C)cccc1C`?
**A.** Activity [15]: 38%; IC50 [16]: 43 nM

**Q.** What does the source list for `CC(C)C[C@H](NC(=O)OC(C)(C)C)C(=O)NCC(=O)N[C@@H](Cc1c[nH]c2ccccc12)C(=O)N[C@@H](CC(C)C)C(=O)N[C@@H](CC(=O)O)C(=O)N[C@@H](Cc1ccccc1)C(N)=O` (Boc-LGWLDF-NH2)?
**A.** IC50 [33]: 1600 nM; Emax [1]: 99%; IC50 [2]: 54 nM; EC50 [34]: 40 nM

**Q.** With `COc1cc(CNC(=O)CCCC/C=C/C(C)C)ccc1O` [CAPSAICIN] as the compound, how does the IC50 [12] read?
**A.** 120000 nM

**Q.** And the Activity [35]?
**A.** 281.3 mm3
